# According to ChEMBL document CHEMBL5126532, “Synthetic approaches and structural diversity of triazolylbutanols derived from voriconazole in the antifungal drug development” (Eur J Med Chem, 2022):
# Experiments:
# [1] = tested on: Aspergillus; test: Antifungal activity against Aspergillus; type: functional
# [2] = tested on: Cryptococcus neoformans; test: Antifungal activity against Cryptococcus neoformans; type: functional; conditions: Cryptococcus neoformans; read-out: MIC
# [3] = tested on: Candida; test: Antifungal activity against Candida spp.; type: functional
# [4] = tested on: Aspergillus fumigatus; test: Antifungal activity against Aspergillus fumigatus assessed as inhibition of fungal growth incubated for 20 hrs; type: functional
# [5] = tested on: Nakaseomyces glabratus; test: Antifungal activity against Candida glabrata; type: functional
# [6] = tested on: Candida albicans; test: Antifungal activity against Candida albicans; type: functional
# [7] = tested on: Candida tropicalis; test: Antifungal activity against Candida tropicalis; type: functional
# [8] = tested on: Pichia kudriavzevii; test: Antifungal activity against Candida krusei; type: functional
# [9] = tested on: Candida parapsilosis; test: Antifungal activity against Candida parapsilosis; type: functional; conditions: Lodderomyces parapsilosis
# [10] = tested on: Candida albicans; test: Antifungal activity against Candida albicans assessed as inhibition of fungal growth incubated for 20 hrs; type: functional
# [11] = tested on: Cryptococcus neoformans; test: Antifungal activity against Cryptococcus neoformans TIMM1855 assessed as inhibition of fungal growth incubated for 68 hrs; type: functional
# [12] = tested on: Candida albicans; test: Antifungal activity against Candida albicans TIMM1850 assessed as inhibition of fungal growth incubated for 20 hrs; type: functional
# [13] = tested on: Candida albicans; test: Antifungal activity against Candida albicans TIMM1756 assessed as inhibition of fungal growth incubated for 20 hrs; type: functional
# [14] = tested on: Cryptococcus neoformans; test: Antifungal activity against Cryptococcus neoformans TIMM1740 assessed as inhibition of fungal growth incubated for 68 hrs; type: functional
# [15] = tested on: Aspergillus fumigatus; test: Antifungal activity against Aspergillus fumigatus IFO6344 assessed as inhibition of fungal growth incubated for 20 hrs; type: functional
# [16] = tested on: Aspergillus fumigatus; test: In vivo antifungal activity against Aspergillus fumigatus infected in CDF1 mouse treated po 4 hrs after injection twice daily for 2 days measured on day 10; type: functional; conditions: 48 h, time 2 day
# [17] = tested on: Candida albicans; test: In vivo antifungal activity against Candida albicans infected in CDF1 mouse treated po or iv immediately after infection measured on day 7; type: functional; conditions: 168 h, time 7 day
# [18] = tested on: Aspergillus fumigatus; test: Antifungal activity against Aspergillus fumigatus TIMM1728 assessed as inhibition of fungal growth incubated for 20 hrs; type: functional
# [19] = tested on: Candida albicans; test: In vivo antifungal activity against Candida albicans infected in CDF1 mouse treated po 4 hrs after injection twice daily for 2 days measured on day 10; type: functional; conditions: 48 h, time 2 day
# [20] = tested on: Candida albicans; test: In vivo antifungal activity against Candida albicans infected in CDF1 mouse treated po or iv 2 hrs after infection twice daily for 2 days measured on day 10; type: functional; conditions: 240 h, time 10 day
# [21] = Metabolic stability in ICR mouse plasma assessed as half life by measuring TAK-456 metabolite formation preincubated for 5 mins followed by compound addition measured at 5 to 120 mins by HPLC analysis; type: ADME, cell-free; conditions: time 5-120 min
# [22] = Metabolic stability in Sprague-Dawley rat plasma assessed as half life by measuring TAK-456 metabolite formation preincubated for 5 mins followed by compound addition measured at 5 to 120 mins by HPLC analysis; type: ADME, cell-free; conditions: time 5-120 min
# [23] = Metabolic stability in human plasma assessed as half life by measuring TAK-456 metabolite formation preinubated for 5 mins followed by compound addition measured at 5 to 120 mins by HPLC analysis; type: ADME, cell-free; conditions: time 5-120 min
# [24] = tested on: Aspergillus fumigatus; test: Antifungal activity against Aspergillus fumigatus in 96-well microplate method; type: functional
# [25] = tested on: Candida albicans; test: Antifungal activity against FCZ-resistant Candida albicans 100; type: functional
# [26] = tested on: Candida albicans; test: Antifungal activity against FCZ-resistant Candida albicans 103; type: functional
# [27] = tested on: Nannizzia gypsea; test: Potency index, ratio of MIC80 for FCZ to ratio of MIC80 for test compound against antifungal activity in Microsporum gypseum; type: functional
# [28] = tested on: Aspergillus fumigatus; test: Antifungal activity against Aspergillus fumigatus; type: functional
# [29] = tested on: Nannizzia gypsea; test: Antifungal activity against Microsporum gypseum; type: functional
# [30] = tested on: Aspergillus sp.; test: Antifungal activity against Aspergillus sp; type: functional; conditions: Aspergillus sp.; read-out: MIC
# [31] = Prodrug conversion in rat plasma assessed as half life; type: ADME, cell-free
# [32] = tested on: Cryptococcus neoformans; test: Antifungal activity against Cryptococcus neoformans TIMM1855 by agar-dilution assay; type: functional; conditions: TIMM 1855
# [33] = tested on: Cryptococcus neoformans; test: Antifungal activity against Cryptococcus neoformans TIMM1740 by agar-dilution assay; type: functional
# [34] = tested on: Aspergillus fumigatus; test: Antifungal activity against Aspergillus fumigatus IFO6344 by agar-dilution assay; type: functional
# [35] = tested on: Candida albicans; test: Antifungal activity against Candida albicans TIMM1850 by agar-dilution assay; type: functional
# [36] = tested on: Candida albicans; test: Antifungal activity against Candida albicans TIMM1756 by agar-dilution assay; type: functional
# [37] = tested on: Aspergillus fumigatus; test: Antifungal activity against Aspergillus fumigatus TIMM1728 by agar-dilution assay; type: functional
# [38] = tested on: Aspergillus fumigatus; test: Antifungal activity against Aspergillus fumigatus 437 by agar-dilution assay; type: functional
# [39] = tested on: Cryptococcus neoformans; test: Antifungal activity against Cryptococcus neoformans TIMM 1855 by 96-well microplate method; type: functional
# [40] = tested on: Aspergillus fumigatus; test: Antifungal activity against Aspergillus fumigatus SANK 10569 by 96-well microplate method; type: functional
# [41] = tested on: Aspergillus flavus; test: Antifungal activity against Aspergillus flavus SANK 18497 by 96-well microplate method; type: functional
# [42] = tested on: Candida albicans; test: Antifungal activity against Candida albicans SANK 51486 by 96-well microplate method; type: functional
# [43] = tested on: Aspergillus fumigatus; test: In vivo antifungal activity against Aspergillus fumigatus infected in Fisher rat administered IV; type: functional
# [44] = tested on: Candida albicans; test: In vivo antifungal activity against Candida albicans ATCC48130 infected in Fisher rat administered IV; type: functional
# [45] = tested on: Candida albicans; test: In vivo antifungal activity against Candida albicans ATCC48130 infected in Fisher rat administered po; type: functional
# [46] = tested on: Aspergillus fumigatus; test: In vivo antifungal activity against Aspergillus fumigatus infected in Fisher rat administered po; type: functional
# [47] = Plasma protein binding in human; type: ADME, cell-free; conditions: route po, read-out: PPB (converted)
# [48] = Oral bioavailability in monkey relative to control; type: ADME, organism-based, Macaca mulatta; conditions: rhesus monkey, in vivo
# [49] = molecular target: Cytochrome P450 3A4 (Homo sapiens, UniProt P08684); test: Inhibition of CYP3A4 in human hepatocyte microsomes using testosterone as substrate by LC-MS/MS analysis; type: ADME, Microsome
# Chain of Cytochrome P450 3A4 (P08684 whole entry): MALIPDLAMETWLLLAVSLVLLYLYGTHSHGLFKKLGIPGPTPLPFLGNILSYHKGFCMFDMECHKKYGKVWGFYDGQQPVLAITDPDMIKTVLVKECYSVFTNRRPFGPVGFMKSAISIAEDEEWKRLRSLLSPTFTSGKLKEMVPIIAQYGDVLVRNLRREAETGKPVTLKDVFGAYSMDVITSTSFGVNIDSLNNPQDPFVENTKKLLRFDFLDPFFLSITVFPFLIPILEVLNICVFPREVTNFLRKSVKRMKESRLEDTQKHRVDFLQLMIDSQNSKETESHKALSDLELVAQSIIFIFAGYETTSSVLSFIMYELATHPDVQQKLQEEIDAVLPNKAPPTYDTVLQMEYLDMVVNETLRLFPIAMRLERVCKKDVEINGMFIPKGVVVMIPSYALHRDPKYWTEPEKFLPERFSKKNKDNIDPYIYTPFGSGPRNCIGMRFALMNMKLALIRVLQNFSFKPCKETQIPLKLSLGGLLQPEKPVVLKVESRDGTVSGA
# [50] = Water solubility of the compound at pH 7.4; type: physicochemical; conditions: buffer
structure (smiles),measurement,setting,value
C[C@@H](C[C@H]1CO[C@H](/C=C/C=C/c2ccc(C(F)(F)F)cc2)OC1)[C@](O)(Cn1cncn1)c1ccc(F)cc1F,MIC,[1],≤ 0.5 µg/mL
C[C@@H](N1CCn2nc(-c3ccc(C#N)nc3)nc2C1)[C@](O)(Cn1cncn1)c1ccc(F)cc1F,MIC,[2],0.0078 µg/mL
same,MIC,[3],0.0078 µg/mL
same,MIC,[1],1 µg/mL
C[C@@H](N1Cc2cc(Br)sc2C1=O)[C@](O)(Cn1cncn1)c1ccc(F)cc1F,MIC,[4],0.25 µg/mL
C[C@H](n1nnnc1CCN1CCN(c2cccc(C(F)(F)F)c2)CC1)[C@](O)(Cn1cncn1)c1ccc(F)cc1F,MIC,[5],0.5 µg/mL
same,MIC,[6],0.12 µg/mL
same,MIC,[7],0.25 µg/mL
same,MIC,[8],0.5 µg/mL
same,MIC,[9],0.25 µg/mL
C[C@@H](N1CCN(c2ccc(-n3cnnn3)cc2)C1=O)[C@](O)(Cn1cncn1)c1ccc(F)cc1F,MIC,[10],0.16 µg/mL
same,MIC,[11],0.016 µg/mL
same,MIC,[12],≤ 0.001 µg/mL
same,MIC,[13],≤ 0.001 µg/mL
same,MIC,[14],0.016 µg/mL
same,MIC,[15],0.25 µg/mL
same,ED50,[16],4 mg/kg
same,ED50,[17],0.77 mg/kg
same,MIC,[18],0.25 µg/mL
same,ED50,[19],0.18 mg/kg
same,ED50,[20],3.56 mg/kg
CC(=O)OC[n+]1cnn(C[C@](O)(c2ccc(F)cc2F)[C@@H](C)N2CCN(c3ccc(-n4cnnn4)cc3)C2=O)c1.[Cl-],MIC,[10],0.016 µg/mL
same,t1/2,[21],5 min
same,t1/2,[22],5 min
same,ED50,[17],0.62 mg/kg
same,t1/2,[23],5 min
same,ED50,[20],4.49 mg/kg
C[C@@H](N1Cc2sc(-c3ccc(C#N)cn3)nc2C1=O)[C@](O)(Cn1cncn1)c1ccc(F)cc1F,MIC80,[24],4 µg/mL
C[C@@H](OCc1cc(-c2ccc(F)cc2)no1)[C@](O)(Cn1cncn1)c1ccc(F)cc1F,MIC80,[25],8 µg/mL
same,MIC80,[26],8 µg/mL
same,Ratio,[27],64
same,MIC80,[28],4 µg/mL
same,MIC80,[6],0.0313 µg/mL
same,MIC80,[29],0.5 µg/mL
same,MIC80,[9],0.0313 µg/mL
C[C@@H](N1Cc2sc(Br)nc2C1=O)[C@](O)(Cn1cncn1)c1ccc(F)cc1F,MIC,[30],16 µg/mL
same,MIC,[2],0.125 µg/mL
same,MIC,[3],0.0625 µg/mL
same,MIC80,[24],4 µg/mL
C[C@@H](N1Cc2sc(-c3cncnc3)nc2C1=O)[C@](O)(Cn1cncn1)c1ccc(F)cc1F,MIC80,[24],4 µg/mL
CC(=O)OCc1ccccc1N(C)C(=O)OC[n+]1cnn(C[C@](O)(c2ccc(F)cc2F)[C@@H](C)c2nc(-c3ccc(C#N)cc3)cs2)c1.[Cl-],t1/2,[31],13 min
C[C@@H](N1CCN(c2ccc(-n3ncnn3)cc2)C1=O)[C@](O)(Cn1cncn1)c1ccc(F)cc1F,MIC,[32],0.03 µg/mL
same,MIC,[11],0.016 µg/mL
same,MIC,[33],0.03 µg/mL
same,MIC,[12],≤ 0.001 µg/mL
same,MIC,[13],≤ 0.001 µg/mL
same,MIC,[14],0.016 µg/mL
same,MIC,[15],0.25 µg/mL
same,MIC,[34],0.03 µg/mL
same,MIC,[35],0.002 µg/mL
same,MIC,[36],0.002 µg/mL
same,ED50,[16],4 mg/kg
same,MIC,[37],0.03 µg/mL
same,MIC,[18],0.25 µg/mL
same,ED50,[19],0.18 mg/kg
same,MIC,[38],0.03 µg/mL
C[C@@H](S[C@H]1CO[C@H](/C=C/C=C/c2ccc(OCC(F)(F)C(F)F)cc2)OC1)[C@](O)(Cn1cncn1)c1ccc(F)cc1F,MIC,[39],0.031 µg/mL
same,MIC,[40],0.125 µg/mL
same,MIC,[41],0.125 µg/mL
same,MIC,[42],0.016 µg/mL
same,MIC,[1],≤ 0.5 µg/mL
COc1ccc(-c2nc3c(s2)CN([C@H](C)[C@](O)(Cn2cncn2)c2ccc(F)cc2F)C3=O)cn1,MIC80,[24],4 µg/mL
CNCC(=O)Oc1c(C)cc(C[n+]2cnn(C[C@](O)(c3ccc(F)cc3F)[C@@H](C)c3nc(-c4ccc(C#N)cc4)cs3)c2)cc1C,ED50,[43],17 µmol/kg
same,ED50,[44],4.6 µmol/kg
same,ED50,[45],4.7 µmol/kg
same,ED50,[46],19 µmol/kg
C=C1CCN([C@H](C)[C@](O)(Cn2cncn2)c2ccc(F)cc2F)CC1 [EFINACONAZOLE],fraction unbound,[47],0.04
C[C@@H](S[C@H]1CO[C@H](/C=C/C=C/c2ccc(C#N)cc2F)OC1)[C@](O)(Cn1cncn1)c1ccc(F)cc1F [EMBECONAZOLE],MIC,[39],≤ 0.008 µg/mL
same,MIC,[40],≤ 0.008 µg/mL
same,MIC,[41],≤ 0.008 µg/mL
same,MIC,[42],≤ 0.008 µg/mL
same,MIC,[1],< 0.5 µg/mL
OC(Cn1cncn1)(Cn1cncn1)c1ccc(F)cc1F [FLUCONAZOLE],MIC,[39],0.25 µg/mL
same,MIC,[5],0.12 µg/mL
same,MIC,[28],> 64 µg/mL
same,MIC,[40],0.25 µg/mL
same,MIC,[41],0.25 µg/mL
same,ED50,[17],0.22 mg/kg
same,MIC,[42],0.25 µg/mL
same,ED50,[19],0.22 mg/kg
same,MIC,[6],0.12 µg/mL
same,ED50,[20],179 mg/kg
same,MIC,[7],0.12 µg/mL
same,MIC,[29],32 µg/mL
same,MIC,[8],0.12 µg/mL
same,MIC,[9],0.12 µg/mL
C[C@@H](c1nc(-c2ccc(C#N)cc2)cs1)[C@](O)(Cn1cncn1)c1cc(F)ccc1F [ISAVUCONAZOLE],bioavailability,[48],87%
CCC(C)n1ncn(-c2ccc(N3CCN(c4ccc(OCC5COC(Cn6cncn6)(c6ccc(Cl)cc6Cl)O5)cc4)CC3)cc2)c1=O (stereo unspecified) [ITRACONAZOLE],MIC,[39],0.031 µg/mL
same,MIC,[5],≤ 0.25 µg/mL
same,MIC,[40],0.031 µg/mL
same,MIC,[41],0.031 µg/mL
same,ED50,[17],5.19 mg/kg
same,MIC,[42],0.031 µg/mL
same,MIC,[6],≤ 0.25 µg/mL
same,ED50,[20],19 mg/kg
same,MIC,[7],≤ 0.25 µg/mL
same,MIC,[8],≤ 0.25 µg/mL
same,MIC,[9],≤ 0.25 µg/mL
C[C@@H](c1nc(-c2ccc(C#N)cc2)cs1)[C@](O)(Cn1cncn1)c1ccc(F)cc1F [RAVUCONAZOLE],IC50,[49],1010 nM
same,solubility,[50],600 µg/mL
same,MIC80,[29],1 µg/mL
